Experimental data published in patent US10745397B2, “1-Substituted 1,2,3,4-tetrahydro-1,7-naphthyridin-8-amine derivatives and their use as EP4 receptor antagonists” (TAKEDA PHARMACEUTICAL COMPANY LIMITED, priority 2015, dated 2020).

How the values were obtained:
human EP4 receptor = target: T1, human EP4 receptor (Homo sapiens, UniProt P35408); assay: hEP4 radioligand binding assay ([3H] PGE2 competitive binding, membrane fractions); conditions: 300 nM compound; 1 nM [3H] PGE2
T1 construct: expressed in transfected cells; host or cells: FreeStyle293 (HEK293F) cells, transient transfection with pcDNA3.1(+), total membrane fraction
T1 sequence (P35408 whole entry): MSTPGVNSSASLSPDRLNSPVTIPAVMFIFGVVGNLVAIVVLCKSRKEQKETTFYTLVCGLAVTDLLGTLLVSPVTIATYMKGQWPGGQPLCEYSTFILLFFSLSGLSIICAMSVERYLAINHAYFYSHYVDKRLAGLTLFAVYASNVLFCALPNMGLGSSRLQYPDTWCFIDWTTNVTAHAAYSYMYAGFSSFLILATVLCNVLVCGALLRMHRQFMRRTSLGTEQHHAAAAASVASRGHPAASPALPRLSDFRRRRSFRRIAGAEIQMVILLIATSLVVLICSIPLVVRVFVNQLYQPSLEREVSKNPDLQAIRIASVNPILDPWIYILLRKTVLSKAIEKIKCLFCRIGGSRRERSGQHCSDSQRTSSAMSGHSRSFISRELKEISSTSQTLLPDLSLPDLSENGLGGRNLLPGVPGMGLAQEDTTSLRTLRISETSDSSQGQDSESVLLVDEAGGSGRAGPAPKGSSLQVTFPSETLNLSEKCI
Source text: The full-length coding sequences for human EP1 (NM_000955), human EP2 (NM_000956), human EP3 (NM_198717) and human EP4 (NM_000958) were cloned into pcDNA3.1(+) vector (Life Technologies, CA, USA). In order to prepare overexpressed EP 1-4 membrane in Freestyle293 cells (Life Technologies, CA, USA), the pcDNA3.1(+) vector encoding a cDNA of the relevant gene was transiently transfected into FreeStyle293 cells using 293Fectin (Life Technologies, CA, USA) according to the manufacturer instruction manual. After 2 days, cultured cells were centrifuged (1,000×g, 10 min, 4° C.) and pellets homogenized by a probe sonicator (Sonics vibracell, Sonics and Materials Inc., USA; 31% Amp, 5 sec pulse, Imin interval, 4 cycles) in ice-cold 50 mM Tris-HCl buffer (pH 7.5 at 25° C.) containing 0.5 mM EDTA, 250 mM Sucrose and 10 mM MgCl2. Cell homogenates were centrifuged (890×g, 10 min, 4° C.), and the supernatant was recovered. Total membrane fractions were isolated by ultracentrifugation (140,000×g, 60 min, 4° C.). Pellets were re-suspended in the same buffer, and stored at −80° C. until use. The protein concentration in homogenate was determined with the BCA Protein Assay Kit (Pierce Biotechnology, Inc., IL, USA) according to the manufacturer protocol.
The binding affinity of the compounds was evaluated using a competitive radioligand binding assay which measured the specific binding of [3H] PGE2 to the human EP4 receptor. Briefly, varying concentrations of NCEs were incubated with cell membrane fractions generated HEK293F cells transiently transfected with human EP4 receptor as described above. Each reaction consisted of 10 μg membrane protein and NCE in 50 mM Tris-HCl, pH-6.0 by NaOH, 10 mM MgCl2 and 0.5 mM EDTA assay buffer. Radioligand, [3H] PGE2 (American Radiochemicals Inc. Specific Activity 180 Ci/mmol), at a final of 1 nM was added to each reaction where the final assay volume was 200 μL and concentration of DMSO was adjusted to 1%. Appropriate controls included total binding in the assay (vehicle control) and control for non-specific binding. Non-specific binding was evaluated by incubating the hEP4 protein with 10 μM unlabeled PGE2 under the same assay conditions as NCEs. The reaction was incubated at room temperature for 2 hours and terminated by harvesting the reaction contents to a PEI coated GF/C filter plate (PerkinElmer). The plate was washed four times with cold 50 mM Tris-HCl, pH-7.5 wash buffer and dried at 50° C. for 2 hours or at 37° C. overnight. [3H] PGE2 bound to the protein was quantified by the addition of 25 μL of Microscint PS (PerkinElmer) and plate was read on MicroBeta2 liquid Scintillation and luminescence counter (PerkinElmer). Data was analyzed using GraphPad Prism 5 (GraphPad Software Inc., San Diego, Calif.) where non-specific binding was normalized to 0% specific binding of [3]PGE2 and vehicle control (DMSO) was normalized to 100% specific binding of [3]PGE2. Binding affinity of NCEs, Ki, was generated using One site—Fit Ki equation in GraphPad Prism 5.

[1] = target: T2, hEP4 (C6 glioma cells overexpressing hEP4) (Homo sapiens, UniProt P35408); assay: hEP4 cell based assay (cAMP), inhibition of PGE2 induced cAMP, HTRF; conditions: 1 μM compound, PGE2 at EC80
T2 construct: host or cells: C6 glioma cells overexpressing hEP4
T2 sequence (P35408 whole entry): as above
Description: The functional assay for hEP4 activation and inhibition was carried out via the quantitative determination of agonist, PGE2, induced cAMP response using HTRF in a competitive immunoassay (Cisbio dynamic 2 kit). NCEs at varying concentrations were evaluated for inhibition of PGE2 induced increase in cAMP. Briefly, C6 glioma cells overexpressing hEP4 (Takeda) were cultured in DMEM (low glucose, pyruvate), 10% FBS (Gibco) and PenStep. The cells were harvested on the day of the assay, washed with HBSS+10 mM HEPES (pH 7.4)+0.1% BSA buffer and pre-incubated with varying concentrations of NCE. Each reaction contained 7000 cells and NCEs in HBSS+10 mM HEPES+0.1% BSA assay buffer along with PDE inhibitors IBMX and Ro 20-1724 (final concentration of each inhibitor […]). Following 15 min pre-incubation, the cells were treated with EC80 concentration of agonist PGE2 for 30 min to induce cAMP. Final volume of the assay was 6 μL and DMSO concentration was maintained at 1%. The reaction was terminated with the addition of cAMP labeled with the dye d2 in lysis buffer according to manufacturers' protocol. This was followed by the addition of the anti-cAMP antibody labeled with Cryptate according to the manufacturers' protocol. The reaction was incubated at room temperature in dark for 45 min and the plate was evaluated for fluorescence at 665 nm (FRET) and 620 nm (cryptate emission) on a Flexstation III microplate reader (Molecular Devices, Sunnyvale, Calif.) Ex max: 313 nm; Em1: 620 nm; Em2: 665 nm. Data was analyzed using GraphPad Prism 5 (GraphPad Software Inc., San Diego, Calif.) where cells treated with agonist (EC80) was normalized to 0% inhibition of hEP4 and cells treated with buffer (no agonist) was normalized to 100% inhibition of hEP4. IC50 of NCEs was generated using non-linear regression—Log(inhibitor) vs. response equation in GraphPad Prism 5.

Row | inhibition at 0.3 µM (human EP4 receptor) [%] | inhibition at 1 µM [1] [%] | SMILES
1 | 87 | 77 | C[C@H](Nc1nccc2c1N(Cc1ccc(-c3ccccc3)cc1)CCO2)c1ccc(C(=O)O)cc1 [Example B30, 4-[(1S)-1-[[4-[(4-phenylphenyl)methyl]-2,3-dihydropyrido[4,3-b][1,4]oxazin-5-yl]amino]ethyl]benzoic acid]
2 | 92 | 98 | C[C@H](Nc1nccc2c1N(Cc1ccc(C(F)(F)F)o1)CCO2)c1ccc(C(=O)O)cc1 [Example B31, 4-[(1S)-1-[[4-[[5-(trifluoromethyl)-2-furyl]methyl]-2,3-dihydropyrido[4,3-b][1,4]oxazin-5-yl]amino]ethyl]benzoic acid]
3 | 53 | 47 | C[C@@H](Nc1nccc2c1N(Cc1ccc(C(F)(F)F)cc1)CCO2)c1ccc(C(=O)O)cc1 [Example B32, 4-[(1R)-1-[[4-[[4-(trifluoromethyl)phenyl]methyl]-2,3-dihydropyrido[4,3-b][1,4]oxazin-5-yl]amino]ethyl]benzoic acid]
4 | 66 | 36 | C[C@@H](Nc1nccc2c1N(Cc1cccc(Cl)c1)CCO2)c1ccc(C(=O)O)cc1 [Example B33, 4-[(1R)-1-[[4-[(3-chlorophenyl)methyl]-2,3-dihydropyrido[4,3-b][1,4]oxazin-5-yl]amino]ethyl]benzoic acid]
5 | 97 | 97 | C[C@H](Nc1nccc2c1N(Cc1ccc(C(F)(F)F)cc1)CCC2)c1ccc(C(=O)O)cc1 [Example B37, 4-[(1S)-1-[[1-[[4-(trifluoromethyl)phenyl]methyl]-3,4-dihydro-2H-1,7-naphthyridin-8-yl]amino]ethyl]benzoic acid]
6 | 100 | 93 | C[C@H](Nc1nccc2c1N(CC1CCCCC1)CCO2)c1ccc(C(=O)O)cc1 [Example B39, 4-[(1S)-1-[[4-(cyclohexylmethyl)-2,3-dihydropyrido[4,3-b][1,4]oxazin-5-yl]amino]ethyl]benzoic acid]
7 | 80 | 85 | C[C@H](Nc1nccc2c1N(CCc1cccc(Cl)c1)CCO2)c1ccc(C(=O)O)cc1 [Example B40, 4-[(1S)-1-[[4-[2-(3-chlorophenyl)ethyl]-2,3-dihydropyrido[4,3-b][1,4]oxazin-5-yl]amino]ethyl]benzoic acid]
8 | 93 | 92 | C[C@H](Nc1nccc2c1N(Cc1ccc(F)c(F)c1)CCC2)c1ccc(C(=O)O)cc1 [Example B44, 4-[(1S)-1-[[1-[(3,4-difluorophenyl)methyl]-3,4-dihydro-2H-1,7-naphthyridin-8-yl]amino]ethyl]benzoic acid]
9 | 100 | 98 | C[C@H](Nc1nccc2c1N(Cc1cccc(Cl)c1)CCC2)c1ccc(C(=O)O)cc1 [Example B45, 4-[(1S)-1-[[1-[(3-chlorophenyl)methyl]-3,4-dihydro-2H-1,7-naphthyridin-8-yl]amino]ethyl]benzoic acid]
10 | 87 | 95 | Cc1cnc(N[C@@H](C)c2ccc(C(=O)O)cc2)c2c1OCCN2Cc1cccc(C(F)(F)F)c1 [Example B46, 4-[(1S)-1-[[8-Methyl-4-[[3-(trifluoromethyl)phenyl]methyl]-2,3-dihydropyrido[4,3-b][1,4]oxazin-5-yl]amino]ethyl]benzoic acid]
11 | 85 | 98 | C[C@H](Nc1nccc2c1N(Cc1ccc(C(F)(F)F)cc1)CCO2)c1ccc(C(N)=O)cc1 [Example D1, 4-[(1S)-1-[[4-[[4-(Trifluoromethyl)phenyl]methyl]-2,3-dihydropyrido[4,3-b][1,4]oxazin-5-yl]amino]ethyl]benzamide]
12 | 87 | 92 | CONC(=O)c1ccc([C@H](C)Nc2nccc3c2N(Cc2ccc(C(F)(F)F)cc2)CCO3)cc1 [Example D2, N-Methoxy-4-[(1S)-1-[[4-[[4-(trifluoromethyl)phenyl]methyl]-2,3-dihydropyrido[4,3-b][1,4]oxazin-5-yl]amino]ethyl]benzamide]
13 | 73 | 84 | CNC(=O)c1ccc([C@H](C)Nc2nccc3c2N(Cc2ccc(C(F)(F)F)cc2)CCO3)cc1 [Example D3, N-methyl-4-[(1S)-1-[[4-[[4-(trifluoromethyl)phenyl]methyl]-2,3-dihydropyrido[4,3-b][1,4]oxazin-5-yl]amino]ethyl]benzamide]
14 | 92 | 93 | CCONC(=O)c1ccc([C@H](C)Nc2nccc3c2N(Cc2ccc(C(F)(F)F)cc2)CCO3)cc1 [Example D4, N-ethoxy-4-[(1S)-1-[[4-[[4-(trifluoromethyl)phenyl]methyl]-2,3-dihydropyrido[4,3-b][1,4]oxazin-5-yl]amino]ethyl]benzamide]
15 | 88 | 90 | C[C@H](Nc1nccc2c1N(Cc1ccc(C(F)(F)F)cc1)CCO2)c1ccc(C(=O)NOCc2ccccc2)cc1 [Example D5, N-benzyloxy-4-[(1S)-1-[[4-[[4-(trifluoromethyl)phenyl]methyl]-2,3-dihydropyrido[4,3-b][1,4]oxazin-5-yl]amino]ethyl]benzamide]
16 | 92 | 91 | C[C@H](Nc1nccc2c1N(Cc1ccc(C(F)(F)F)cc1)CCO2)c1ccc(C#N)cc1 [Example E1, 4-[(1S)-1-[[4-[[4-(Trifluoromethyl)phenyl]methyl]-2,3-dihydropyrido[4,3-b][1,4]oxazin-5-yl]amino]ethyl]benzonitrile]
17 | 100 | 90 | C[C@H](Nc1nccc2c1N(Cc1ccc(C(F)(F)F)cc1)CCO2)c1ccc(-c2nnn[nH]2)cc1 [Example F1, N-[(1S)-1-[4-(1H-Tetrazol-5-yl)phenyl]ethyl]-4-[[4-(trifluoromethyl)phenyl]methyl]-2,3-dihydropyrido[4,3-b][1,4]oxazin-5-amine]
18 | 100 | 92 | C[C@H](Nc1ncc(Cl)c2c1N(Cc1ccc(C(F)(F)F)cc1)CCO2)c1ccc(C(=O)O)cc1 [Example G1, 4-[(1S)-1-[[8-Chloro-4-[[4-(trifluoromethyl)phenyl]methyl]-2,3-dihydropyrido[4,3-b][1,4]oxazin-5-yl]amino]ethyl]benzoic acid]
